Patent publication US20120142682A1, “ANT[…] INHIBITING BACTERIAL MONO-ADP-RIBOSYLT[…]” (UNIVERSITY OF GUELPH, priority 2010, published 2012)

Assays:
[1] = molecular target: WT ExoAc (Pseudomonas aeruginosa, UniProt P11439); experiment: biochemical; format: binding, P. aeruginosa; settings: read-out: Kd
[2] = system: C38 cells; experiment: Mammalian C38 cell drug sensitivity assay (MTT); format: cell-based, Human; settings: compound 50 μM
Experimental: The C38 cells were cultured in 25 cm^2 culture flasks containing LHC-8 media with 5% fetal bovine serum at 37° C. in 5% CO2 until 90-100% confluency. The cells were washed with phosphate-buffered saline (PBS) and then detached from the culture flask by treating the cells with Puck's Saline Solution containing 0.02% EDTA. The cell suspension was diluted to a final density of 1.0×10^5 cells/mL and 100-μL aliquots were used to seed a 96-well plate. The cells were then grown in the presence of 50 μM of inhibitor (nonpolar compounds required 0.5% DMSO for solubility).

[3] = system: Saccharomyces cerevisiae cells expressing the catalytic domain of P. aeruginosa ExoA (ExoAc); experiment: Yeast-based compound screen; format: cell-based; settings: compound 50 μM; w303 strain; growth restored
[4] = molecular target: cholix toxin (Vibrio cholerae, UniProt Q5EK40); experiment: biochemical; format: biochemical; settings: for IC50: read-out: IC50; for Ki: read-out: Ki
cholix toxin, sequence (Q5EK40 33-666 limits assumed): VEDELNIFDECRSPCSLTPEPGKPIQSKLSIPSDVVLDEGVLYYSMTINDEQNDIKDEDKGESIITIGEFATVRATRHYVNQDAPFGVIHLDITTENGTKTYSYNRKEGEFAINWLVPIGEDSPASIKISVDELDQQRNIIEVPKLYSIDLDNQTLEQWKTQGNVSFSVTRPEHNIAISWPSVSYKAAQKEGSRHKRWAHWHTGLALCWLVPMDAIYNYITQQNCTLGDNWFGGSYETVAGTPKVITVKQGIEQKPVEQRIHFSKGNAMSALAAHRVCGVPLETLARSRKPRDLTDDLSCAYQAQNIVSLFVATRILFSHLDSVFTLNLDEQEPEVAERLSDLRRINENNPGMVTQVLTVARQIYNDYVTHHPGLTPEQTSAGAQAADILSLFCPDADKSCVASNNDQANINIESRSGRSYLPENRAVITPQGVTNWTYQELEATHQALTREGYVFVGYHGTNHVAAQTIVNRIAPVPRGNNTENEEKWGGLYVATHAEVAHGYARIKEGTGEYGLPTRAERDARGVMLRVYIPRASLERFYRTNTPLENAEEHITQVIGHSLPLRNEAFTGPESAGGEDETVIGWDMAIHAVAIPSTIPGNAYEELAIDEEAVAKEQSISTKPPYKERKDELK

WT ExoAc, sequence (P11439 430-638 limits assumed): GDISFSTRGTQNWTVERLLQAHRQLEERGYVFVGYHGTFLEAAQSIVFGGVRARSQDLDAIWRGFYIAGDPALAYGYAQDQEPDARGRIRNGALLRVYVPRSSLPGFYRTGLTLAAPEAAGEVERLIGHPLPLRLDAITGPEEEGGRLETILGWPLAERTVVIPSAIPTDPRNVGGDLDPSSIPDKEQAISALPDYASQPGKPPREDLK

Compound	Kd [1]	toxicity to C38 cells [2]	Protection in Yeast [3]	IC50 [4]	Ki [4]
CN(C)CCCOc1ccc(-c2nc3cccc4c3n2CCNC4=O)cc1 [Compound P2]	0.26 ± 0.01 µM	toxic	− (Compounds showing less than 5% growth were scored (−))	0.48 ± 0.04 µM	0.063 ± 0.005 µM
CN1CCN(C2CCC3NC(O)C4CCCCC4C3N2)CC1 (stereo not drawn) [Compound P3]	1.47 ± 0.03 µM	toxic	− (Compounds showing less than 5% growth were scored (−))	0.69 ± 0.13 µM	0.09 ± 0.017 µM
O=c1[nH]nc2c3c(cccc13)N=CN2 [Compound P7]	0.68 ± 0.04 µM	toxic	− (Compounds showing less than 5% growth were scored (−))	0.908 ± 0.118 µM	0.118 ± 0.007 µM
